Measurements as given in patent US20150290106A1, “Dentotropic Conjugates and Compositions and Methods of Use Thereof” (BOARD OF REGENTS OF THE UNIVERSITY OF NEBRASKA, priority 2012, published 2015).

Tests used:
[1] = Menthol release in filtered saliva diluted 1:1 with PBS over 24 hours (GC/MS, FIG. 2); format: in vitro ADME, human; conditions: saliva/PBS 1:1, 37° C.
Procedure: FIG. 2 provides a graph of the menthol release after chloroform extraction over the course of 24 hours.
Into several 15-mL glass vials were placed 10 mg of menthol-PPi and 2 mL of fresh saliva. The saliva had been centrifuged to remove any free particles, then filtered through a 0.45 μm syringe filter to rid bacteria. It was then diluted 1:1 by volume with phosphate-buffered saline (PBS). Each sample was placed in a water bath incubator at 37° C., shaking at 40 rpm, for a specific amount of time over the course of 24 hours. One sample was withdrawn at each time interval, and vortexed for 10 seconds after direct addition of 2 mL of chloroform. The mixture was transferred to microcentrifuge tubes, after which each tube was centrifuged at 12,000 rpm for one minute to separate the chloroform phase from the water (saliva/PBS) phase. […] After GC/MS analysis of each sample, the total amount of menthol released was calculated using the integration areas of menthol and neomenthol, simplified into a ratio. […] The absolute amount, in μg, of menthol in each GC/MS vial was determined by multiplying the concentration by 1 mL, the total amount of solution in the vial. Then, the release amount was calculated by taking the previous value and multiplying it by a factor of 4, since the original sample was 2 mL. […]

[2] = Model tooth surface binding experiment (menthol-PPi/hydroxyapatite binding by 1H NMR); conditions: for speed of binding to HA (time to maximum binding): HA powder, vortex agitation, diphosphate
Procedure: Menthol-PPi (80 mg) was dissolved in deuterium oxide (D2O, 16.1159 g). Two drops (34.7 mg) of acetone was added as an internal reference when using NMR spectroscopy. Four time intervals were chosen for this study, each with three samples for each interval. Into each of twelve microcentrifuge tubes was added 10 mg hydroxyapatite (HA). One by one, […] was added to the tubes and then agitated with a vortex mixer at high speed for the allotted amount of time. Each tube was then centrifuged at 12.000 rpm for one minute. The liquid was then transferred to NMR tubes for analysis. Three blank NMR samples without the influence of HA were prepared for reference, as well as three control samples without pyrophosphate (i.e., menthol only) with HA. The spectra of the blank samples were compared to those of the experimental samples by observing the relative integration areas of the acetone peak vs. the signal from one methyl group of menthol's isopropyl component. No binding is observed without pyrophosphate.
An additional experiment was performed, changing the hydroxyapatite amount while keeping the vortex time fixed at 2 minutes for each sample, simulating the average time a person spends brushing his or her teeth. Menthol-PPi (80 mg) was dissolved in 16.14 g D2O. Two drops (25.7 mg) of acetone were again added as internal reference. One gram of the menthol-PPi solution was added to the HA test tubes just prior to vortex agitation, as before. Samples were again analyzed via ^1H NMR.

Compound	release profile of menthol from the pyrophosphate [1]	HA-Bound Conjugate (% ± σ %) ([2]; 10 mg hydroxyapatite, vortex time 1 min) [%]	HA-Bound Conjugate (% ± σ %) ([2]; 10 mg hydroxyapatite, vortex time 2 min) [%]	HA-Bound Conjugate (% ± σ %) ([2]; 10 mg hydroxyapatite, vortex time 5 min) [%]	HA-Bound Conjugate (% ± σ %) ([2]; 10 mg hydroxyapatite, vortex time 10 min) [%]	HA-Bound Conjugate (% ± σ %) ([2]; 20 mg hydroxyapatite, time fixed at two minutes) [%]	HA-Bound Conjugate (% ± σ %) ([2]; 30 mg hydroxyapatite, time fixed at two minutes) [%]	HA-Bound Conjugate (% ± σ %) ([2]; 40 mg hydroxyapatite, time fixed at two minutes) [%]	speed of binding to HA (time to maximum binding) [2]	speed of binding to HA (time to maximum binding) ([2]; listed as menthol-PPi)	binding to HA ([2]; control samples without pyrophosphate (menthol only) with HA)
CC(C)[C@@H]1CC[C@@H](C)C[C@H]1OC(=O)COP(=O)([O-])OP(=O)([O-])[O-].[Na+].[Na+].[Na+] [Menthol-PPi, sodium 2-((1R,2S,5R)-2-isopropyl-5-methylcyclohexyloxy)-2-oxoethyl diphosphate]	linear in nature	27.56 ± 4.44	25.69 ± 0.77	28.30 ± 2.70	28.25 ± 3.04	33.88 ± 6.32	45.04 ± 1.34	54.51 ± 3.65	within one minute	very quickly	
CC1CCC(C(C)C)C(O)C1 (centres unmarked) [menthol, reference compound]											No binding
